Molecules are shown by their SMILES. Where two headings read alike, the source gives them in different places. Marks after values point to notes of the source that are not given here.

The source of these data is patent publication US11192849B2, “Compounds, compositions, and methods for modulating ferroptosis and treating excitotoxic disorders” (THE TRUSTEES OF COLUMBIA UNIVERSITY IN THE CITY OF NEW YORK, priority 2013, dated 2021).

Data set [1] has as its system C57BL/6 mice, kidney ischemia-reperfusion injury. Kind of data set: Kidney model of ischemia-reperfusion injury (IRI). In kind it is in vivo. Here is the method:
As an initial in vivo study, the effects of Fer-1 and SRS16-86 on serum creatinine, a marker of kidney damage, were evaluated in an ischemia reperfusion injury (IRI) model of kidney failure (FIG. 21).
Organs were dissected as indicated in each experiment and infused with 4% (vol/vol) neutral-buffered formaldehyde, fixated for 48 h, dehydrated in a graded ethanol series and xylene, and finally embedded in paraffin. Stained sections were analyzed using an Axio Imager microscope (Zeiss). Kidney damage was quantified by two experienced pathologists in a double-blind manner on a scale ranging from 0 (unaffected tissue) to 10 (severe organ damage). The following parameters were chosen as indicative of morphological damage to the kidney after ischemia-reperfusion injury (IRI): brush border loss, red blood cell extravasation, tubule dilatation, tubule degeneration, tubule necrosis, and tubular cast formation. These parameters were evaluated on a scale of 0-10, which ranged from not present (0), mild (1-4), moderate (5 or 6), severe (7 or 8), to very severe (9 or 10). Each parameter was determined on at least four different animals.
Induction of kidney IRI was performed via a midline abdominal incision and a bilateral renal pedicle clamping for either 40 min (severe IRI, or “lethal-to-WT” IRI) or 50 min (ultra-severe IRI) using microaneurysm clamps (Aesculab). Throughout the surgical procedure, the body temperature was maintained between 36° C. and 37° C. by continuous monitoring using a temperature-controlled self-regulated heating system (Fine Science Tools). After removal of the clamps, reperfusion of the kidneys was confirmed visually. The abdomen was closed in two layers using standard 6-0 sutures. Sham-operated mice underwent the identical surgical procedures, except that microaneurysm clamps were not applied. To maintain fluid balance, all of the mice were supplemented with 1 mL of prewarmed PBS administered intraperitoneally directly after surgery. All mice were killed 48 h after reperfusion for each experiment. […] All ischemia-reperfusion experiments were performed in a double-blinded manner.

The nature of data set [2]: In vitro stability study in mouse plasma. In kind it is in vitro ADME. As to conditions: for Percent Remaining: 37° C. Here is the method:
The assay was conducted by incubating 1 μM of test compounds with Mouse Plasma (Strain […]) for a series of incubation times (0, 15, 30, 60, 120 minutes) at various temperatures (wet ice, room temperature, or 37° C.) with 5% CO2 and shaking (130 rpm). At each time point, the samples were quenched with 200 μL of stop solution containing an internal standard and kept on ice. The samples were analysed by LC-MS/MS.

A further data set concerns HT1080 cells. Description: FACS (7AAD / annexin V) of erastin-treated HT1080 cells. Conditions: 50 μM erastin, 1 μM compound. In kind it is cell-based, human. Here is the method: (§1) For induction of necroptosis, HT-29 cells were stimulated for 24 h at 37° C. with 100 ng/mL TNFα plus 1 μM Smac mimetics plus 25 μM zVAD as indicated (vehicle-treated cells served as control). For induction of ferroptosis, NIH and HT-1080 cells were each stimulated for 24 h at 37° C. with 50 μM erastin as indicated (vehicle-treated cells served as a control). For induction of apoptosis, Jurkat cells were stimulated for 4 h with 100 ng/mL monoclonal anti-Fas (clone 7C11; Immunotech). Anti-Fas-induced apoptosis of Jurkat cells was inhibited by further addition of 25 μM zVAD (vehicle-treated cells served as control).
(§2) Phosphatidylserine exposure to the outer cell membrane of apoptotic cells or at the inner plasma membrane of necrotic cells and incorporation of 7-AAD into necrotic cells were quantified by fluorescence-activated cell sorting (FACS) analysis. The ApoAlert annexin V-FITC antibody and the 7-AAD antibody were purchased from BD Biosciences.

A further data set relates to NIH 3T3 cells. Kind of data set: FACS (7AAD / annexin V) of erastin-treated NIH 3T3 cells. Type of data set: cell-based, murine. As to conditions: 50 μM erastin, 1 μM compound. How it is done: as §1, §2
For data set [3], the system named is freshly isolated murine renal tubules. Description: Synchronized necrosis of freshly isolated renal tubules (fatty-acid depletion / erastin). In kind it is cell-based, mouse. Conditions: in the presence of fatty acids. How it is done:
Six to 12 mice were used for each isolated tubule preparation, depending on the amount of material needed for particular experiments. For preparation of isolated tubules, mice were anesthetized with ketamine (100 mg/kg i.p.) and xylazine (10 mg/kg i.p.), and the kidneys were immediately removed. Type I collagenase was from Worthington Biochemical. Percoll was purchased from Amersham Biosciences. All other reagents and chemicals, including delipidated BSA, were of the highest grade available from Sigma-Aldrich. […] The cortices were then dissected and minced on an ice-cold tile and then resuspended in additional solution A for 8-10 min of digestion at 37° C., followed by enrichment of proximal tubules using centrifugation on self-forming Percoll gradients. For Nec-1 studies in renal tubules, renal cortices were dissected in ice-cold dissection solution (DS) [HBSS with 10 mmol/L glucose, 5 mmol/L glycine, 1 mmol/L alanine, 15 mmol/L Hepes (pH 7.4); osmolality, 325 mOsmol/L] and sliced into 1-mm pieces. The fragments were transferred to collagenase solution (DS with 0.1% (wt/vol) type 2 collagenase and 96 μg/mL soybean trypsin inhibitor) and digested for 30 min at 37° C. and 61×g. After digestion, the supernatant was sieved through two nylon sieves: first 250-μm pore size and then 100-μm pore size. […]

A short description of data set [4]: Metabolic stability in mouse liver microsomes. In kind it is in vitro ADME. As to conditions: for half-life at 0.5 μM: mouse, liver microsomes. How it is done:
Test compounds (0.5 μM) were incubated at 37° C. for up to 45 minutes in 50 mM of potassium phosphate buffer (pH 7.4) containing mouse liver microsomal protein (0.5 mg/mL) and an NADPH generating system (0.34 mg/mL β-nicotinamide adenine dinucleotide phosphate (NADP), 1.56 mg/mL glucose-6-phosphate, 1.2 units/mL glucose-6-phosphate dehydrogenase). At 0, 5, 15, 30, and 45 minute intervals, an aliquot was taken and quenched with acetonitrile (ACN) containing internal standard. No-cofactor controls at 45 minutes were prepared. Following completion of the experiment, the samples were analyzed by LC-MS/MS.
The half-life (t1/2) was calculated using the following equation: t1/2=0.693/k Where, k is the elimination rate constant of test compounds obtained by fitting the data to the equation: C=initial×exp(−k×t) Intrinsic clearance (Clint) is calculated as liver clearance from the half-life using the following equation: […]
0.5 mg protein/mL incubation
Ethoxycoumarin was used as a control.
On the technique in general: Microsomes from liver hold many membrane-bound enzymes, among them those of drug oxidation.

For `CC(C)(C)OC(=O)c1ccc(NC23CC4CC(CC(C4)C2)C3)c(/N=C\c2cncnc2)c1` [SRS16-86, tert-butyl 4-(adamantylamino)-3-(pyrimidin-5-ylmethyleneamino)benzoate], the “serum creatinine in IRI model of kidney failure” value in data set [1] (2 mg/kg IP 30 minutes prior to induction of IRI) was “effective”. The “functional acute renal failure and structural organ damage after severe IRI” value in data set [1] (40 min ischemia, 48 h after reperfusion, 2 mg/kg i.p.) is given as “protected from functional acute renal failure”. Also, in data set [1] (50 min ischemia, Nec-1+SfA-treated mice, 2 mg/kg i.p.), the “serum urea and serum creatinine in ultrasevere IRI, added to Nec-1+SfA” value was “reduced plasma levels of serum urea and serum creatinine”. Moreover, the “Percent Remaining” value in data set [2] (0 minutes) is 100.0%; in data set [2] (15 minutes), 82.2%; in data set [2] (30 minutes), 86.5%; in data set [2] (60 minutes), 83.9%; in data set [2] (120 minutes) it was 63.9%. Further, the half-life at 1 μM in data set [2] (C57BL/4, mouse, plasma, read-out: T1/2 in mouse plasma) is > 2 h. For the same compound, the “ferroptosis-inhibiting ability (FACS)” value in the data set with HT1080 cells and in the data set on NIH 3T3 cells was “active compound” in each case. For the same compound, in data set [3], the tubular necrosis result is “prevented”. Further, the “Elimination rate constant (k)” value in data set [4] (Mouse, Compound Conc = 0.5 μM) is recorded as <0.0048. For the same compound, the “Intrinsic Clearance (CLint) (mL/min/g liver)” value in data set [4] (Mouse, Compound Conc = 0.5 μM) was <0.5* mL/min/g liver. Besides, the half-life at 0.5 μM in data set [4] (pH 7.4, Mouse, Compound Conc = 0.5 μM, read-out: Half life (t½)) is > 1.5 h; in data set [4] (pH 7.4, stated in the text of Example 15, read-out: T1/2 in mouse liver microsomes), > 2 h.
